Source: patent US4123552A, “Compositions for preserving crops and animal feedstuffs” (Chevron Research Company, priority 1975, dated 1978)

Key:
All Species = test: Control of seed- and soil-borne pathogens during storage of corn seeds (Table IV), all species; type: cell-based, Rhizopus, Penicillium, Fusarium; details: relative to untreated check
Protocol: A variety of bis-esters was tested for the control of seed- and soil-borne pathogens during storage of corn seeds (Zea mays) by the following procedure.
(§1) A small amount of acetone was added to the bis-ester to make specific volume, plus a small portion of emulsifier making it into a slurry. This preparation was diluted with water to the desired concentration. Solution was then evenly distributed on the wall of a glass jar. High moisture feedcorn with natural infection was stored frozen after harvest until used for this test. The corn seeds were rolled in the jar until they were coated and the solution was completely absorbed on them.
(§2) Following the treatment, the corn seeds were plated on Potato Dextrose Agar plates. For comparison, untreated corn seeds were also plated. Propionic acid was also tested for comparison.
The percentage control of all species was based on the total sum average of mycelial growth in millimeters of all species in the treated seeds relative to the untreated check. The fast growing Rhizopus was evaluated 7 days after treatment, the other fungi after 14 days.

[1] = Solubility of insecticides in methylene bispropionate; type: physicochemical; details: solvent methylene bispropionate
Protocol: Methylene bispropionate was tested as a solvent for various insecticides. […] O,S-dimethylN-acetyl phosphoramidothioate was soluble in methylene bispropionate to the extent of 5 percent by weight. Chlordane was soluble in methylene bispropionate to the extent of at least 75 percent by weight.

high moisture corn = test: Preservation of high moisture corn in ventilated cans (time until temperature exceeds room temperature); details: corn 25 percent moisture, 70-72 F
Protocol: High moisture corn (25 percent moisture) was treated with various methylene and polyoxymethylene esters of propionic or acetic acid of various dosages. The esters were applied to the corn in a mixer for one minute at 32 RPM. Three replicate two gallon ventilated cans were filled with the treated corn. The cans were then held at a temperature of 70°-72° F. Temperature readings were taken semi-weekly by means of thermocouples in the center of each can. When the temperature exceeded constant room temperature for at least an 8-hour period the treatment was considered broken.

Aspergillus niger = test: Concentration for 90% control of pathogen on corn seeds (Table V), Aspergillus niger; type: cell-based; details: corn seeds; 14 days after treatment
Protocol: as §1, §2
(§3) A variety of bis-esters was tested for the control of seed- and soil-borne pathogens during the storage of corn seeds (Zea mays) by the procedure of Example 11. For comparison, propionic acid was also tested.
(§4) Control of each pathogen was determined by mycelial growth in millimeters in the treated seeds relative to untreated seeds. Mycelial growth of Rhizopus species and Fusarium species was evaluated 5 days after treatment. Mycelial growth in Aspergillus niger was evaluated 14 days after treatment.
(§5) The bis-ester tested and the concentration of active ingredient in ounces per 100 lbs. of corn seeds for 90 percent control of each pathogen species are tabulated in Table V.

Rhizopus sp. = test: Concentration for 90% control of pathogen on corn seeds (Table V), Rhizopus sp.; type: cell-based; details: 5 days after treatment
Protocol: as §1, §2, §3, §4, §5

Fusarium sp. = test: Concentration for 90% control of pathogen on corn seeds (Table V), Fusarium sp.; type: cell-based; details: 5 days after treatment
Protocol: as §1, §2, §3, §4, §5

Compound | % Control All Species (All Species; 1.0 Oz./100 Lbs.) [%] | % Control All Species (All Species; 2.5 Oz./100 Lbs.) [%] | % Control All Species (All Species; 6.4 Oz./100 Lbs.) [%] | % Control All Species (All Species; 16 Oz./100 Lbs.) [%] | other results
CCC(=O)OC(OC(=O)CC)C(Cl)(Cl)Cl [2,2,2-Trichloroethylidene Bispropionate] | 8 | 54 | 74 |  | % Control All Species (All Species; 18 Oz./100 Lbs.): 89%
CCC(=O)OC(OC(=O)CC)c1ccccc1 [Benzylidene Bispropionate] | 46 | 54 | 79 | 91 | 
ClC1=C(Cl)C2(Cl)C3C(Cl)C(Cl)CC3C1(Cl)C2(Cl)Cl (stereo not drawn) [Chlordane] |  |  |  |  | solubility in methylene bispropionate [1]: at least 75 percent by weight
CC(=O)OC(C)OC(C)=O [Ethylidene Bisacetate] | 60 | 87 | 93 | 100 | 
CCC(=O)OC(C)OC(=O)CC [Ethylidene Bispropionate] | 44 | 50 | 83 | 91 | 
CCOC(=O)CC(SP(=S)(OC)OC)C(=O)OCC (stereo not drawn) [Malathion, S-[1,2-bis(ethoxycarbonyl)ethyl]-O,O-dimethyl phosphorodithioate] |  |  |  |  | miscibility with methylene bispropionate (in words) [1]: miscible with methylene bispropionate in all proportions
CC(=O)OCOC(C)=O [Methylene Bisacetate] |  |  |  |  | Weeks Effective (high moisture corn; 3 Oz/Bu): 6 Weeks; Weeks Effective (high moisture corn; 6 Oz/Bu): > 12 Weeks
CC(C)C(=O)OCOC(=O)C(C)C [Methylene Bisisobutyrate] | 98 | 99 | 100 | 98 | Conc. for 90% Control, Aspergillus niger (Aspergillus niger): * (No Control at 2.5 oz./100 lbs.); Conc. for 90% Control, Rhizopus sp. (Rhizopus sp.): 3.2 oz./100 lbs.; Conc. for 90% Control, Fusarium sp. (Fusarium sp.): 2.0 oz./100 lbs.
